Assay results taken from ChEMBL document CHEMBL4219210, “Discovery and biological evaluation of novel pyrazolopyridine derivatives as potent and orally available PI3Kδ inhibitors” (Bioorg Med Chem, 2018).

Columns and labels:
[1] = target: PI3-kinase p110-delta/p85-alpha (Homo sapiens, UniProt O00329); assay: Inhibition of recombinant human full length N-terminal His6-tagged PI3K p110delta/untagged recombinant full length human p85alpha expressed in baculovirus infected Sf21 insect cells using PIP2 as substrate after 35 to 40 mins by HTRF assay
Homo sapiens = species on record: Homo sapiens; assay: Selectivity ratio of IC50 for recombinant human N-terminal His6-tagged full length PI3K p110alpha/untagged recombinant full length human p85alpha to IC50 for recombinant human full length N-terminal His6-tagged PI3K p110delta/untagged recombinant full length human p85alpha expressed in baculovirus infected Sf21 insect cells
[2] = Stability in BALB/c mouse plasma assessed as parent compound remaining at 2 uM after 16 hrs in presence of NaF by LC-MS/MS analysis; assay type: ADME, cell-free; details: read-out: Stability
[3] = Stability in BALB/c mouse plasma assessed as parent compound remaining at 2 uM after 16 hrs in absence of NaF by LC-MS/MS analysis; assay type: ADME, cell-free; details: read-out: Stability
[4] = Oral bioavailability in BALB/c mouse plasma at 3 mg/kg by LC-MS/MS analysis; assay type: ADME, organism-based
[5] = AUC in BALB/c mouse plasma at 3 mg/kg, po by LC-MS/MS analysis; assay type: ADME, organism-based
[6] = Volume of distribution at steady state in BALB/c mouse plasma at 1 mg/kg, iv followed by po dosing at 3 mg/kg by LC-MS/MS analysis; assay type: ADME, organism-based; details: read-out: Vdss
[7] = Cmax in BALB/c mouse plasma at 1 mg/kg, iv followed by po dosing at 3 mg/kg by LC-MS/MS analysis; assay type: ADME, organism-based
[8] = Total clearance in BALB/c mouse plasma at 1 mg/kg, iv followed by po dosing at 3 mg/kg by LC-MS/MS analysis; assay type: ADME, organism-based
[9] = target: PI3-kinase p110-alpha/p85-alpha (Homo sapiens, UniProt P42336); assay: Inhibition of recombinant human N-terminal His6-tagged full length PI3K p110alpha/untagged recombinant full length human p85alpha expressed in baculovirus infected Sf21 insect cells using phosphatidylinositol as substrate after 3 hrs by kinase glo reagent based luminescence assay
[10] = Half life in BALB/c mouse plasma at 1 mg/kg, iv followed by po dosing at 3 mg/kg by LC-MS/MS analysis; assay type: ADME, organism-based
[11] = Tmax in BALB/c mouse plasma at 1 mg/kg, iv followed by po dosing at 3 mg/kg by LC-MS/MS analysis; assay type: ADME, organism-based
PI3K p110 beta/p85 alpha = PI3K p110 beta/p85 alpha (Homo sapiens, UniProt P42338); assay: Inhibition of recombinant human full length N-terminal His6-tagged PI3K p110beta/untagged recombinant full length human p85alpha expressed in baculovirus infected Sf21 insect cells using PIP2 as substrate after 35 to 40 mins by HTRF assay
[12] = target: Phosphatidylinositol 4,5-bisphosphate 3-kinase catalytic subunit gamma isoform (Homo sapiens, UniProt P48736); assay: Inhibition of recombinant human full length N-terminal His-tagged PI3Kgamma expressed in Sf9 insect cells using PIP2 as substrate after 35 to 40 mins by HTRF assay
Chain of Phosphatidylinositol 4,5-bisphosphate 3-kinase catalytic subunit gamma isoform (P48736 whole entry, canonical isoform): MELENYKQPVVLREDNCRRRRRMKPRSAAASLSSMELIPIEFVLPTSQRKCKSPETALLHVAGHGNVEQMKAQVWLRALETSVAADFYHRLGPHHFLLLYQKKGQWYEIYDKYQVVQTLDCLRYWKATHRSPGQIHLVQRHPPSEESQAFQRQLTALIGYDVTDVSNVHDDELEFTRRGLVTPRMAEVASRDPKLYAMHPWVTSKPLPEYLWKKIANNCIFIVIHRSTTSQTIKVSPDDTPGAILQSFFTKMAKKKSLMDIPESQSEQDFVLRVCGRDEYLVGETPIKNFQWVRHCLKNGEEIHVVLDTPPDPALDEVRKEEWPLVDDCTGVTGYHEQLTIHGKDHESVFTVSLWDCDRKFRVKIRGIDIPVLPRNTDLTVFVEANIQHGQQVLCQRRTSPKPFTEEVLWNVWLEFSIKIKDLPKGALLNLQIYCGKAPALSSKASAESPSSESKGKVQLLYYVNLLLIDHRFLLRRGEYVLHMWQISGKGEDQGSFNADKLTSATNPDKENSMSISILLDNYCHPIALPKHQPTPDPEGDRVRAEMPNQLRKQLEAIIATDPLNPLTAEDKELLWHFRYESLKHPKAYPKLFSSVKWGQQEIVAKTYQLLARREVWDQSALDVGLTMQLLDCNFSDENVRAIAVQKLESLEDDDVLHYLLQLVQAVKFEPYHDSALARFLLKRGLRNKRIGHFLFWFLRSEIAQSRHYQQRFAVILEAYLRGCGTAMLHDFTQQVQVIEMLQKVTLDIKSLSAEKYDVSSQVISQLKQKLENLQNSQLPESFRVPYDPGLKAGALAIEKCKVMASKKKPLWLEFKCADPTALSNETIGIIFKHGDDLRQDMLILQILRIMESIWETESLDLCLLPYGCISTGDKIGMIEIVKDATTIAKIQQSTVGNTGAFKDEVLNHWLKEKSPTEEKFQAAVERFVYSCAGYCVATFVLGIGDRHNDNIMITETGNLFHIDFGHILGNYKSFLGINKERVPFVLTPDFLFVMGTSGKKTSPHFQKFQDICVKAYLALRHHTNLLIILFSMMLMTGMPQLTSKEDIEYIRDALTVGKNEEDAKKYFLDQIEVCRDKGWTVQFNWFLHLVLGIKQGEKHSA

Chain of PI3-kinase p110-delta/p85-alpha (P27986 whole entry): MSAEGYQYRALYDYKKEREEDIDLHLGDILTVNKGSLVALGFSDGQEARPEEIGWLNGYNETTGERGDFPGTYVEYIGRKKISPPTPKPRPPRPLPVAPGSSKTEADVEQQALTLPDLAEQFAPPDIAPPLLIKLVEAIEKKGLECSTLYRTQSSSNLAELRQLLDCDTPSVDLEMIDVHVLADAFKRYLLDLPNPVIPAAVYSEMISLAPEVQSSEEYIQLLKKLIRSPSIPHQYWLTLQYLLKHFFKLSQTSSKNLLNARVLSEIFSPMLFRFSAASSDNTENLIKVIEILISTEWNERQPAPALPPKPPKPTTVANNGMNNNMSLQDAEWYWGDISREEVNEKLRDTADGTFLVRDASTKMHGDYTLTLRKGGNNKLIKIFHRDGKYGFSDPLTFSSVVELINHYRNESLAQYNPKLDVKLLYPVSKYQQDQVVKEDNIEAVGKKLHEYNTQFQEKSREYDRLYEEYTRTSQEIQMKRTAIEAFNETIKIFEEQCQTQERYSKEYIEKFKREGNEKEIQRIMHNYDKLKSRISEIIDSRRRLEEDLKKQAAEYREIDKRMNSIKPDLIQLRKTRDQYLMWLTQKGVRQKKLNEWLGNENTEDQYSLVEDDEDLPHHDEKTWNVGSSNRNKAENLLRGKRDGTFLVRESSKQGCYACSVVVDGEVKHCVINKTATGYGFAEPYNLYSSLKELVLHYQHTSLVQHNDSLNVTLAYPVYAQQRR
Chain of PI3-kinase p110-delta/p85-alpha (O00329 whole entry): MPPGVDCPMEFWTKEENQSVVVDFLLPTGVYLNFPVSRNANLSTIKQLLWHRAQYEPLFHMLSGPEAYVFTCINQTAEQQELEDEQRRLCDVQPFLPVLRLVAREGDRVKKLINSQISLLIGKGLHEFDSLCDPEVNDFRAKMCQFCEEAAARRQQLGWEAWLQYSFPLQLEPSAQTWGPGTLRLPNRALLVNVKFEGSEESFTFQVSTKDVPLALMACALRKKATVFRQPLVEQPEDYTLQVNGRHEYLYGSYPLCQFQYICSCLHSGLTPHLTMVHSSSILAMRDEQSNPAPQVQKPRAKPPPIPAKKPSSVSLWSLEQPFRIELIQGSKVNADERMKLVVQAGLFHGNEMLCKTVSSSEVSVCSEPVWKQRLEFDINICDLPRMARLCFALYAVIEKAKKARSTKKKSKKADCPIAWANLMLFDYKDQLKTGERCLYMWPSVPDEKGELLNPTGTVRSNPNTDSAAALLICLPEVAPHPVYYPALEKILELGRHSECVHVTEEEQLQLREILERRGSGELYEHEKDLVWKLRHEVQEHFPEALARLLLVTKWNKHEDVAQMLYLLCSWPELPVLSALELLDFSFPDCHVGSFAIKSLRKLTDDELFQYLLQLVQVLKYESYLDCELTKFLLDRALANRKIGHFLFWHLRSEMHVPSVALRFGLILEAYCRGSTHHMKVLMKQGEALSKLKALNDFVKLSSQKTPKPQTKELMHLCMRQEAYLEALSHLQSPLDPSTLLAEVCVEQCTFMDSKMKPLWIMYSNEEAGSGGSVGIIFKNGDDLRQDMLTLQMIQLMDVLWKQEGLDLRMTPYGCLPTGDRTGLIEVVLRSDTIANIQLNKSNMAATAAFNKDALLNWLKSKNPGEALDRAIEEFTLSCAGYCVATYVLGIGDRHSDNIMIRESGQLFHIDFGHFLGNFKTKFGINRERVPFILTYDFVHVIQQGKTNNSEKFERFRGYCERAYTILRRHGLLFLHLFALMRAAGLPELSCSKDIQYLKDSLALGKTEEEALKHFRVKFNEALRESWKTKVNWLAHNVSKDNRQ
Chain of PI3K p110 beta/p85 alpha (P27986 whole entry, canonical isoform): as the sequence (P27986 whole entry) above
Chain of PI3K p110 beta/p85 alpha (P42338 whole entry, canonical isoform): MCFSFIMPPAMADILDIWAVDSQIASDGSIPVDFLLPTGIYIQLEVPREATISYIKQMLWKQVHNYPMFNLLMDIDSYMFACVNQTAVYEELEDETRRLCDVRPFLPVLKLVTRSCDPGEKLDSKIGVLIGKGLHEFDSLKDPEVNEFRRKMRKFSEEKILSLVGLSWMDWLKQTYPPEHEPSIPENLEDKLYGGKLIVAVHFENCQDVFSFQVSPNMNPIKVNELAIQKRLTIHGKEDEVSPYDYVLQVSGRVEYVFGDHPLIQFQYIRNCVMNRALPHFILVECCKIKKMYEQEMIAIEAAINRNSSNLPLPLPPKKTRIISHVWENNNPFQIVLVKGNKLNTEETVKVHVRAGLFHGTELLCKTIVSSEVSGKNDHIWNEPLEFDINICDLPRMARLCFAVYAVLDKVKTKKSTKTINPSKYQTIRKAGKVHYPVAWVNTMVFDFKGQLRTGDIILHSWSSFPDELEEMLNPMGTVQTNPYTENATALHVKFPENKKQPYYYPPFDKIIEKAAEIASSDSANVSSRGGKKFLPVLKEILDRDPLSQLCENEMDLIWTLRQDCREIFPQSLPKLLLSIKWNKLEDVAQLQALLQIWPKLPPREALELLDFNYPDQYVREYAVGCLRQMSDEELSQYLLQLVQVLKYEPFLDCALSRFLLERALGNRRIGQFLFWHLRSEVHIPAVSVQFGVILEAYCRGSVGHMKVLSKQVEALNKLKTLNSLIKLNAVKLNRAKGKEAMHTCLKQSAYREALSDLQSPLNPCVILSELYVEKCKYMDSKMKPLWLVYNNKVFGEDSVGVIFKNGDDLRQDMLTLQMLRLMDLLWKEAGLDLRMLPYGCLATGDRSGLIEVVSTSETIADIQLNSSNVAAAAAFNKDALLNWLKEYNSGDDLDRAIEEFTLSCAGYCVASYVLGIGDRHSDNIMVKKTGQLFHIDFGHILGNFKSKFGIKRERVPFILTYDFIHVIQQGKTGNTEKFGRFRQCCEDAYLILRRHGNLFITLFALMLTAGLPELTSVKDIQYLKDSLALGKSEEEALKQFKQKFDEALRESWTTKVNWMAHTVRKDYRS
Chain of PI3-kinase p110-alpha/p85-alpha (P27986 whole entry): as the sequence (P27986 whole entry) above
Chain of PI3-kinase p110-alpha/p85-alpha (P42336 whole entry): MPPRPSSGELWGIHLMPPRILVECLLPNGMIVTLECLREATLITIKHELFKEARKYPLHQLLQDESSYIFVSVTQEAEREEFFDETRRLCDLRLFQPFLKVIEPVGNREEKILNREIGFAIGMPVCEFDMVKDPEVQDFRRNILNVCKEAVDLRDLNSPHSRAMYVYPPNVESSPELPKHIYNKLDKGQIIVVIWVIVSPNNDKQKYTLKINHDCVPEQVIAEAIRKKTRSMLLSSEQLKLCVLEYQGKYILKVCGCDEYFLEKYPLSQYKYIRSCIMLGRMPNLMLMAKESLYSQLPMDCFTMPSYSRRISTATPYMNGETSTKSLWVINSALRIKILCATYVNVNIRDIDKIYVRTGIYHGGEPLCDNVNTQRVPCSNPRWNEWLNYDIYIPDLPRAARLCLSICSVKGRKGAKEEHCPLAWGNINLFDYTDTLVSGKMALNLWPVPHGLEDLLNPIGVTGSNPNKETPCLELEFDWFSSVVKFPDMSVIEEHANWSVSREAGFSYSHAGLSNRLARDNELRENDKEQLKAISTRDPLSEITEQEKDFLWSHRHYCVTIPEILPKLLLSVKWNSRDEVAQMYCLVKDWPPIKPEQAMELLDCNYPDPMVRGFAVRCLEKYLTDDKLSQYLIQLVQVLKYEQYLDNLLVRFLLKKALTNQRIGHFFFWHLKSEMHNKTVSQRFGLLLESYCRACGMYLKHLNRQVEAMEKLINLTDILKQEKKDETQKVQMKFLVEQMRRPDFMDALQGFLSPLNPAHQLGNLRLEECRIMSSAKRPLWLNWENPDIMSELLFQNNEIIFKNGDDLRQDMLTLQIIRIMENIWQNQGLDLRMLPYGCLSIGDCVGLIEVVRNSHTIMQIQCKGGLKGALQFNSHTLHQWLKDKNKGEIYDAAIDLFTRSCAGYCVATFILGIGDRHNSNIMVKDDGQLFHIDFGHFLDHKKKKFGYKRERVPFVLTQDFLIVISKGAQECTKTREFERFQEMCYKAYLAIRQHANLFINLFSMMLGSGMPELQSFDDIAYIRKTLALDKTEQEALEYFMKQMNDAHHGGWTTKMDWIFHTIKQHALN

## COc1ncc(-c2cc(O[C@@H]3CCN(C4CCOCC4)C3)c3cnn(C)c3n2)cc1NS(C)(=O)=O
[1]
  IC50: 52 nM
Homo sapiens
  Ratio IC50: 21

## COc1ncc(-c2cc(O[C@@H]3CCN(Cc4ccccc4)C3)c3cnn(C)c3n2)cc1NS(C)(=O)=O
[1]
  IC50: 4.5 nM
Homo sapiens
  Ratio IC50: 160

## COc1ncc(-c2cc(O[C@@H]3CCN(Cc4cnn(C)c4)C3)c3cnn(C)c3n2)cc1NS(C)(=O)=O
[1]
  IC50: 8.2 nM
Homo sapiens
  Ratio IC50: 71

## COc1ncc(-c2cc(O[C@@H]3CCN(C(=O)C4(C)CCOCC4)C3)c3cnn(C)c3n2)cc1NS(C)(=O)=O
[1]
  IC50: 18 nM

## COc1ncc(-c2cc(NC(=O)c3coc(CN4CCN(CCN5CCOCC5)CC4)n3)c3cnn(C)c3n2)cc1NS(C)(=O)=O
[1]
  IC50: 3.3 nM
Homo sapiens
  Ratio IC50: 250
[2]
  remaining at 16 h, 2 µM: 92.3%
[3]
  remaining at 16 h, 2 µM: 17.6%

## COc1ncc(-c2cc(O[C@H]3CCN(C(=O)C4CCOCC4)C3)c3cnn(C)c3n2)cc1NS(C)(=O)=O
[1]
  IC50: 53 nM
Homo sapiens
  Ratio IC50: 13

## COc1ncc(-c2cc(NC(=O)c3coc(CN4CCN(C(C)C)CC4)n3)c3cnn(C)c3n2)cc1NS(C)(=O)=O
[1]
  IC50: 8.4 nM
Homo sapiens
  Ratio IC50: 40
[2]
  remaining at 16 h, 2 µM: 79.7%
[3]
  remaining at 16 h, 2 µM: 0.4%
[4]
  bioavailability: 16%
[5]
  AUC: 45.6 ng·h/mL
[6]
  Vd: 4.03 L/kg
[7]
  Cmax: 19.9 ng/mL
[8]
  clearance: 170 mL/min/kg
[9]
  IC50: 330 nM
[10]
  half-life: 22 min
[11]
  Tmax: 120 min

## COc1ncc(-c2cc(NC(=O)c3coc(CN4CCN(Cc5cccnc5)CC4)n3)c3cnn(C)c3n2)cc1NS(C)(=O)=O
[1]
  IC50: 0.75 nM
Homo sapiens
  Ratio IC50: 290
[2]
  remaining at 16 h, 2 µM: 90.3%
[3]
  remaining at 16 h, 2 µM: 0.5%

## COc1ncc(-c2cc(N(C)[C@@H]3CCN(C(=O)C4CCOCC4)C3)c3cnn(C)c3n2)cc1NS(C)(=O)=O
[1]
  IC50: 230 nM

## COc1ncc(-c2cc(O[C@@H]3CCN(C(=O)C4CCOCC4)C3)c3cnn(C)c3n2)cc1NS(C)(=O)=O
[1]
  IC50: 5.3 nM
Homo sapiens
  Ratio IC50: 92
[3]
  remaining at 16 h, 2 µM: 109%
[4]
  bioavailability: 71.1%
[5]
  AUC: 1640 ng·h/mL
[6]
  Vd: 2.37 L/kg
[7]
  Cmax: 861 ng/mL
[8]
  clearance: 24.5 mL/min/kg
[10]
  half-life: 151 min
[11]
  Tmax: 15 min

## COc1ncc(-c2cc(N[C@@H]3CCN(C(=O)C4CCOCC4)C3)c3cnn(C)c3n2)cc1NS(C)(=O)=O
[1]
  IC50: 110 nM
Homo sapiens
  Ratio IC50: 3.2

## COc1ncc(-c2cc(O[C@@H]3CCN(Cc4c(C)nn(C)c4C)C3)c3cnn(C)c3n2)cc1NS(C)(=O)=O
[1]
  IC50: 4.5 nM
Homo sapiens
  Ratio IC50: 320
[4]
  bioavailability: 49%
[5]
  AUC: 346 ng·h/mL
PI3K p110 beta/p85 alpha
  IC50: 520 nM
[12]
  IC50: > 10000 nM
[6]
  Vd: 2.82 L/kg
[7]
  Cmax: 298 ng/mL
[8]
  clearance: 68.3 mL/min/kg
[10]
  half-life: 84.6 min
[11]
  Tmax: 15 min

## COc1ncc(-c2cc(O[C@@H]3CCN(CC4CCOCC4)C3)c3cnn(C)c3n2)cc1NS(C)(=O)=O
[1]
  IC50: 18 nM
Homo sapiens
  Ratio IC50: 29

## COc1ncc(-c2cc(O[C@@H]3CCN(C(=O)c4ccccc4)C3)c3cnn(C)c3n2)cc1NS(C)(=O)=O
[1]
  IC50: 16 nM
Homo sapiens
  Ratio IC50: 5.3

## COc1ncc(-c2cc(O[C@@H]3CCN(S(=O)(=O)C4CCOCC4)C3)c3cnn(C)c3n2)cc1NS(C)(=O)=O
[1]
  IC50: 38 nM
Homo sapiens
  Ratio IC50: 2

## COc1ncc(-c2cc(O[C@@H]3CCN(C(=O)CC4CCOCC4)C3)c3cnn(C)c3n2)cc1NS(C)(=O)=O
[1]
  IC50: 36 nM
Homo sapiens
  Ratio IC50: 17
